Like-named read-outs stand apart in the source and are kept apart here.
Molecular target: T1, human histamine H3 receptor (Homo sapiens, UniProt Q9Y5N1)
T1 construct: host or cells: cells expressing the human H3 receptor
Experiment: H3 GTPγS assay (SPA method), histamine H3 in vitro assay
Assay type: biochemical
Protocol: H3 GTPγS assay (SPA method) was performed at EuroScreen (Belgium, ES-392-C) using conventional methods. Briefly, cells expressing the human histamine H3 receptor were homogenized in 15 mM Tris-HCl pH 7.5, 2 mM MgCl2, 0.3 mM EDTA, and 1 mM EGTA. Membranes were washed twice in the above tris buffer, collected by centrifugation (40,000×g, 25 min), and re-suspended in 75 mM Tris-HCl pH 7.5, 12.5 mM MgCl2, 0.3 mM EDTA, 1 mM EGTA, and 250 mM sucrose. Membranes were frozen in liquid nitrogen until use. On the day of the assay, membranes were thawed and diluted in assay buffer (20 mM HEPES pH 7.4, 100 mM NaCl, 10 μg/ml saponin, 1 mM MgCl2) to give 500 μg/ml and mixed (v/v) with GDP in assay buffer for a final GDP concentration of 10 μM and incubated on ice for at least 15 min. PVT-WGA beads (Amersham, RPNQ001) were diluted in assay buffer at 50 mg/mL and mixed with GTPγ[^35S] (Amersham, SJ1308) diluted in assay buffer to give ˜25,000 dpm/10 μL, and mixed vol/vol just before the start of the reaction. The reaction was started by adding 50 μL of test compound, 20 μL of the membranes:GDP mix, 10 μL of buffer, and 20 μL of the GTPγ[^35S]:beads mix in a 96 well plate Optiplate™ (PerkinElmer, 6005299) covered with topseal (TopCount™, PerkinElmer), mixed with an orbital shaker for 2 min, incubated for 1 hour at room temperature, centrifuged for 10 min at 2000 rpm, incubated for 1 h at room temperature, and counted for 1 min in a TopCount™ reader (PerkinElmer). Dose response curves and IC50 values (concentration to inhibit the reaction by 50%) were calculated by nonlinear regression using XLfit software (IDBS).
For antagonists testing, 10 μL of a reference agonist (R-γ-Me-Histamine) instead of 10 μL buffer was added at a concentration corresponding to the EC80 (30 nM). Control ligands were R-γ-Me-Histamine (Tocris, 0569), Imetit (Sigma, I-135), Thioperamide (Tocris, 0644), and Clobenpropit (Tocris, 0754) diluted in assay buffer.
The compounds provided herein were tested in the histamine H3 in vitro assay. In one embodiment, the respective HCl salts of the compounds provided herein were prepared using standard chemical procedures and tested in the histamine H3 in vitro assay.

[1] = GTPγ[35S] SPA, membranes of cells expressing human H3 receptor, in one embodiment HCl salts tested, read-out: Potency (functional potency as indicated by IC50)
[2] = histamine H3 in vitro assay, read-out: IC50 values

T1 sequence (Q9Y5N1 whole entry): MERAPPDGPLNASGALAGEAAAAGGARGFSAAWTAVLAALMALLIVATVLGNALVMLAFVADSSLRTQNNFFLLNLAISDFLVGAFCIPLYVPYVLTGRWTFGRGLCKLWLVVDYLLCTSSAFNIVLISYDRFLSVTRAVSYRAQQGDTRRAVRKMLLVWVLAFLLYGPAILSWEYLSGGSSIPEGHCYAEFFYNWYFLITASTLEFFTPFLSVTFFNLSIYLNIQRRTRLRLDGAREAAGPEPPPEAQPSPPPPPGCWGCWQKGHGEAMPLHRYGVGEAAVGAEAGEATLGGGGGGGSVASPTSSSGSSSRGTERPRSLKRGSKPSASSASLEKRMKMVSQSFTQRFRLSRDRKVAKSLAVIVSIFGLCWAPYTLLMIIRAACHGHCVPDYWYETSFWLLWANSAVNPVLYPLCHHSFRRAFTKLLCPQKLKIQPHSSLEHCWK

Compound	IC50 [1] [nM]	IC50 [2] [nM]
4-(1′,2′,3′,5′,6′,7′,9′,9a′-Octahydro-3H-spiro[benzofuran-2,8′-pyrrolo[1,2-a]azepin]-5-yl)benzonitrile and 4-(1′,2′,3′,5′,6′,8′,9′,9a′-octahydro-3H-spiro[benzofuran-2,7′-pyrrolo[1,2-a]azepin]-5-yl)benzonitrile [95/95a]	≤ 100	
5-((3,4-Dihydroisoquinolin-2(1H)-yl)methyl)-1′,2′,3′,5′,6′,7′,9′,9a′-octahydro-3H-spiro[benzofuran-2,8′-pyrrolo[1,2-a]azepine] and 5-((3,4-dihydroisoquinolin-2(1H)-yl)methyl)-1′,2′,3′,5′,6′,8′,9′,9a′-octahydro-3H-spiro[benzofuran-2,7′-pyrrolo[1,2-a]azepine] [97/97a]	≤ 10	
5-((3,4-Dihydroisoquinolin-2(1H)-yl)methyl)-2′,3′,4′,6′,7′,9′,10′,10a′-octahydro-1′H,3H-spiro[benzofuran-2,8′-pyrido[1,2-a]azepine] and 5-((3,4-dihydroisoquinolin-2(1H)-yl)methyl)-2′,3′,4′,6′,7′,8′,10′,10a′-octahydro-1′H,3H-spiro[benzofuran-2,9′-pyrido[1,2-a]azepine] [88/88a]	≤ 100	
5-(Imidazo[1,2-a]pyridin-6-yl)-1′,2′,3′,5′,6′,7′,9′,9a′-octahydro-3H-spiro[benzofuran-2,8′-pyrrolo[1,2-a]azepine] and 5-(imidazo[1,2-a]pyridin-6-yl)-1′,2′,3′,5′,6′,8′,9′,9a′-octahydro-3H-spiro[benzofuran-2,7′-pyrrolo[1,2-a]azepine] [96/96a]	≤ 10	
5-(Morpholinomethyl)-2′,3′,4′,6′,7′,9′,10′,10a′-octahydro-1′H,3H-spiro[benzofuran-2,8′-pyrido[1,2-a]azepine] and 5-(morpholinomethyl)-2′,3′,4′,6′,7′,8′,10′,10a′-octahydro-1′H,3H-spiro[benzofuran-2,9′-pyrido[1,2-a]azepine] [87/87a]	≤ 100	
5-Bromo-1′,2′,3′,5′,6′,7′,9′,9a′-octahydro-3H-spiro[benzofuran-2,8′-pyrrolo[1,2-a]azepine] and 5-bromo-1′,2′,3′,5′,6′,8′,9′,9a′-octahydro-3H-spiro[benzofuran-2,7′-pyrrolo[1,2-a]azepine] [94/94a]	≤ 1000	
5-Bromo-2′,3′,4′,6′,7′,9′,10′,10a′-octahydro-1′H,3H-spiro[benzofuran-2,8′-pyrido[1,2-a]azepine] and 5-bromo-2′,3′,4′,6′,7′,8′,10′,10a′-octahydro-1′H,3H-spiro[benzofuran-2,9′-pyrido[1,2-a]azepine] [82/82a]	≤ 1000	
c1ccc2c(c1)ncn2-c1ccc2c(c1)C[C@]1(CCCN(C3CCC3)CC1)O2 (single isomer, unassigned) [Compound 52, 5′-(1H-Benzo[d]imidazol-1-yl)-1-cyclobutyl-3′H-spiro[azepane-4,2′-benzofuran]]	≤ 100	
c1ccc2c(c1)ncn2-c1ccc2c(c1)C[C@]1(CCCN(C3CCC3)CC1)O2 (single isomer, unassigned) [Compound 53, 5′-(1H-Benzo[d]imidazol-1-yl)-1-cyclobutyl-3′H-spiro[azepane-4,2′-benzofuran]]	≤ 100	
Brc1ccc2c(c1)CC1(CCN3CCCCC3C1)O2 (single isomer, unassigned) [Compound 72, 5-Bromo-1′,3′,4′,6′,7′,8′,9′,9a′-octahydro-3H-spiro[benzofuran-2,2′-quinolizine]]	≤ 1000	
Brc1ccc2c(c1)CC1(CCN3CCCCC3C1)O2 (single isomer, unassigned) [Compound 73, 5-Bromo-1′,3′,4′,6′,7′,8′,9′,9a′-octahydro-3H-spiro[benzofuran-2,2′-quinolizine]]	≤ 100	
c1ccc2c(c1)CC1(CCN(C3CCC3)CC1)O2 [Compound 1, 1′-Cyclobutyl-3H-spiro[benzofuran-2,4′-piperidine]]	≤ 100	
CN1CCC(N2CCC3(CC2)Cc2ccccc2O3)CC1 [Compound 2, 1′-(1-Methylpiperidin-4-yl)-3H-spiro[benzofuran-2,4′-piperidine]]		> 1000
c1ccc2c(c1)CC1(CCN(Cc3c[nH]cn3)CC1)O2 [Compound 3, 1′-((1H-Imidazol-4-yl)methyl)-3H-spiro [benzofuran-2,4′-piperidine]]		> 1000
CC(C1CCC1)N1CCC2(CC1)Cc1ccccc1O2 (stereo not drawn) [Compound 4, 1′-(1-Cyclobutylethyl)-3H-spiro[benzofuran-2,4′-piperidine]]	≤ 1000	
CC(=O)Nc1ccc(-c2ccc3c(c2)CC2(CCN(C4CCC4)CC2)O3)cc1 [Compound 6, N-(4-(1′-Cyclobutyl-3H-spiro[benzofuran-2,4′-piperidine]-5-yl)phenyl)acetamide]	≤ 10	
c1cc2cc(-c3ccc4c(c3)CC3(CCN(C5CCC5)CC3)O4)ccc2[nH]1 [Compound 7, 1′-Cyclobutyl-5-(1H-indol-5-yl)-3H-spiro[benzofuran-2,4′-piperidine]]	≤ 100	
CN1CCC(N2CCC3(CC2)Cc2cc(-c4ccc(C#N)cc4)ccc2O3)CC1 [Compound 8, 4-(1′-(1-Methylpiperidin-4-yl)-3H-spiro[benzofuran-2,4′-piperidine]-5-yl)benzonitrile]	≤ 100	
CC(=O)Nc1ccc(-c2ccc3c(c2)CC2(CCN(C4CCN(C)CC4)CC2)O3)cc1 [Compound 9, N-(4-(1′-(1-Methylpiperidin-4-yl)-3H-spiro[benzofuran-2,4′-piperidine]-5-yl)phenyl)acetamide]	≤ 100	
CN1CCC(N2CCC3(CC2)Cc2cc(-c4ccc5[nH]ccc5c4)ccc2O3)CC1 [Compound 10, 5-(1H-Indol-5-yl)-1′-(1-methylpiperidin-4-yl)-3H-spiro[benzofuran-2,4′-piperidine]]	≤ 1000	
CC(C1CCC1)N1CCC2(CC1)Cc1cc(-c3ccc(C#N)cc3)ccc1O2 (stereo not drawn) [Compound 11, 4-(1′-(1-Cyclobutylethyl)-3H-spiro[benzofuran-2,4′-piperidine]-5-yl)benzonitrile]	≤ 10	
CC(=O)Nc1ccc(-c2ccc3c(c2)CC2(CCN(C(C)C4CCC4)CC2)O3)cc1 (stereo not drawn) [Compound 12, N-(4-(1′-(1-Cyclobutylethyl)-3H-spiro[benzofuran-2,4′-piperidine]-5-yl)phenyl)acetamide]	≤ 10	
CC(C1CCC1)N1CCC2(CC1)Cc1cc(-c3ccc4[nH]ccc4c3)ccc1O2 (stereo not drawn) [Compound 13, 1′-(1-Cyclobutylethyl)-5-(1H-indol-5-yl)-3H-spiro[benzofuran-2,4′-piperidine]]	≤ 100	
NCc1ccc(-c2ccc3c(c2)CC2(CCN(C4CCC4)CC2)O3)cc1 [Compound 14, (4-(1′-Cyclobutyl-3H-spiro[benzofuran-2,4′-piperidine]-5-yl)phenyl)methanamine]	≤ 100	
CN1CCC(N2CCC3(CC2)Cc2cc(-c4ccc(CN)cc4)ccc2O3)CC1 [Compound 15, (4-(1′-(1-Methylpiperidin-4-yl)-3H-spiro[benzofuran-2,4′-piperidine]-5-yl)phenyl)methanamine]	≤ 100	
CC(C1CCC1)N1CCC2(CC1)Cc1cc(-c3ccc(CN)cc3)ccc1O2 (stereo not drawn) [Compound 16, (4-(1′-(1-Cyclobutylethyl)-3H-spiro[benzofuran-2,4′-piperidine]-5-yl)phenyl)methanamine]	≤ 10	
N#Cc1ccc(-c2ccc3c(c2)CC2(CCN(C4CCCC4)CC2)O3)cc1 [Compound 17, 4-(1′-Cyclopentyl-3H-spiro[benzofuran-2,4′-piperidine]-5-yl)benzonitrile]	≤ 100	
